This is an account of results in ChEMBL document CHEMBL4390652, “Design, biological evaluation and X-ray crystallography of nanomolar multifunctional ligands targeting simultaneously acetylcholinesterase and glycogen synthase kinase-3” (Eur J Med Chem, 2019).

One data set relates to NCI-H727. Nature of the data set: Cytotoxicity against human NCI-H727 cells assessed as growth inhibition incubated for 48 hrs by Hoechst 33342 staining based assay. Type of data set: cell-based. The settings on record: NCI-H727, 48 h.
Another data set concerns Caco-2. Nature of the data set: Cytotoxicity against human Caco2 cells assessed as growth inhibition incubated for 48 hrs by Hoechst 33342 staining based assay. The settings on record: Caco-2, 48 h. Type of data set: cell-based.
A further data set deals with Cholinesterase (Homo sapiens, UniProt P06276). Nature of the data set: Inhibition of human serum BChE using BTCh as substrate preincubated for 20 mins followed by substrate addition and measured for 3 mins by Ellman's method. Background: Ellman's reagent forms a yellow product with free thiols.
For a further data set, the system named is MDA-MB-231. Nature of the data set: Cytotoxicity against human MDA-MB-231 cells assessed as growth inhibition incubated for 48 hrs by Hoechst 33342 staining based assay. The settings on record: MDA-MB-231, 48 h. Type of data set: cell-based.
In data set [1] the target is Glycogen synthase kinase-3 (Sus scrofa, UniProt B2LUN4+I6LNT8).
Description: Inhibition of native porcine brain GSK-3alpha/beta using GS-1 as substrate incubated for 30 mins in presence of [gamma-33P]ATP by liquid scintillation counting assay
The next data set has as its target Acetylcholinesterase (Homo sapiens, UniProt P22303). Nature of the data set: Inhibition of human recombinant AChE using ATCh as substrate preincubated for 20 mins followed by substrate addition and measured for 3 mins by Ellman method.
The test system of a further data set is PC-3. Briefly: Cytotoxicity against human PC3 cells assessed as growth inhibition incubated for 48 hrs by Hoechst 33342 staining based assay. The settings on record: PC-3, 48 h. Type of data set: cell-based.
The subject of a further data set is HCT-116. Briefly: Cytotoxicity against human HCT116 cells assessed as growth inhibition incubated for 48 hrs by Hoechst 33342 staining based assay. Type of data set: cell-based. The settings on record: HCT-116, 48 h.
Data set [2] deals with Cyclin-dependent kinase 5/CDK5 activator 1 (Homo sapiens, UniProt Q00535). Type of data set: protein-complex assay.
Description: Inhibition of human recombinant CDK5/p25 using histone H1 as substrate in presence of [gamma-33P]ATP incubated for 30 mins by liquid scintillation counting assay
The subject of the next data set is Huh-7. Briefly: Cytotoxicity against human HuH7 cells assessed as growth inhibition incubated for 48 hrs by Hoechst 33342 staining based assay. Type of data set: cell-based. The settings on record: Huh-7, 48 h.
Data set [3] concerns MDR1. Nature of the data set: in vitro. The settings on record: dog, MDCK-MDR1.
Description: Apparent permeability across apical to basolateral side in MDCK2-MDR1 cells by HPLC analysis
A further data set concerns HaCaT. Nature of the data set: Cytotoxicity against human HaCaT cells assessed as growth inhibition incubated for 48 hrs by Hoechst 33342 staining based assay. Type of data set: cell-based.
Data set [4] deals with MDR1. Briefly: in vitro. The settings on record: dog, MDCK-MDR1. This is another data set of the same source.
Description: Apparent permeability across basolateral to apical side in MDCK2-MDR1 cells by HPLC analysis
The next data set relates to MDCK-MDR1. Briefly: Cytotoxicity against MDCK2-MDR1 cells assessed as reduction in cell viability at 75 uM incubated for 2 hrs by MTT assay. Type of data set: ADME, cell-based, Canis lupus familiaris. The settings on record: dog, mdck-mdr1, 2 h. In general terms: Tetrazolium dyes change colour on reduction, which living cells bring about.
The next data set concerns SH-SY5Y. Nature of the data set: Cytotoxicity against human SH-SY5Y cells assessed as reduction in cell viability incubated for 72 hrs by MTT assay. Type of data set: cell-based.
The subject of data set [5] is MDR1. Briefly: in vitro. The settings on record: dog, MDCK-MDR1. This is another data set of the same source.
Description: Efflux ratio of apparent permeability from basolateral to apical over apical to basolateral side in MDCK2-MDR1 cells by HPLC analysis
Data set [6] is described as follows: Cytotoxicity against human SH-SY5Y cells assessed as reduction in cell viability at 100 uM incubated for 24 hrs by MTT assay relative to untreated cells. Type of data set: cell-based. The settings on record: read-out: INH.

SMILES strings stand for the structures.

Chain of Acetylcholinesterase (P22303 whole entry): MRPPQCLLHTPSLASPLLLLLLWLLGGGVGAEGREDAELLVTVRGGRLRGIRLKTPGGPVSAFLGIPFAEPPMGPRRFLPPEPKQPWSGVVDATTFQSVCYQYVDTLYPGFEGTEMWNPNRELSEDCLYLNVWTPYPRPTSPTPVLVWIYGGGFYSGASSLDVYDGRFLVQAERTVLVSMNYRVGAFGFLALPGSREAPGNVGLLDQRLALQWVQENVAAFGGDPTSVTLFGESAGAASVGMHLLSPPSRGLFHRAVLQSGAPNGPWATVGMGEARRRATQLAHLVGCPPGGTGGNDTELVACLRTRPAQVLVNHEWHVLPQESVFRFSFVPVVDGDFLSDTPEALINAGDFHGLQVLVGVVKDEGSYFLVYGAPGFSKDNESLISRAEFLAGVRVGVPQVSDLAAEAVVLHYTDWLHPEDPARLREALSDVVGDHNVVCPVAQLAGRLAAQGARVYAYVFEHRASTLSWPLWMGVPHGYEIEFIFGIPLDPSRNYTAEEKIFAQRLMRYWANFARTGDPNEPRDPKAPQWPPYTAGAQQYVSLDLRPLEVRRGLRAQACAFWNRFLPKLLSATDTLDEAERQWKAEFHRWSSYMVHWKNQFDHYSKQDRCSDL
Chain of Cyclin-dependent kinase 5/CDK5 activator 1 (Q00535 whole entry): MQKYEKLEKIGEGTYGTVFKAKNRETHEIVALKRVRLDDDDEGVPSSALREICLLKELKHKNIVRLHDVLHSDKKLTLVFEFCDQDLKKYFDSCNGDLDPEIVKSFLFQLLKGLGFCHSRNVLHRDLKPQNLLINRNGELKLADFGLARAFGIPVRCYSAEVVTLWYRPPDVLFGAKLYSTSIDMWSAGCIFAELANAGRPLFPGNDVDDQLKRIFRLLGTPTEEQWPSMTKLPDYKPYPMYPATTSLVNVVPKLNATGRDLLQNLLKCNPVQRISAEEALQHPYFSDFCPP
Chain of Cyclin-dependent kinase 5/CDK5 activator 1 (Q15078 whole entry, further chain): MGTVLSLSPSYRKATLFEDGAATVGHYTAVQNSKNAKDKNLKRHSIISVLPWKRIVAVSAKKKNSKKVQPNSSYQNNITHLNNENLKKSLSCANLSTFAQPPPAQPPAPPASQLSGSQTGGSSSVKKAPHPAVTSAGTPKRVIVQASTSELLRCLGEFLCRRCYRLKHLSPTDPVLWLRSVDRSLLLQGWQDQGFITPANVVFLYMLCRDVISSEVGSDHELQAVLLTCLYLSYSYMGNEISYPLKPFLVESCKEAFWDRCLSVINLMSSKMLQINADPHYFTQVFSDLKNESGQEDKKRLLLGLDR
Chain of Cholinesterase (P06276 whole entry): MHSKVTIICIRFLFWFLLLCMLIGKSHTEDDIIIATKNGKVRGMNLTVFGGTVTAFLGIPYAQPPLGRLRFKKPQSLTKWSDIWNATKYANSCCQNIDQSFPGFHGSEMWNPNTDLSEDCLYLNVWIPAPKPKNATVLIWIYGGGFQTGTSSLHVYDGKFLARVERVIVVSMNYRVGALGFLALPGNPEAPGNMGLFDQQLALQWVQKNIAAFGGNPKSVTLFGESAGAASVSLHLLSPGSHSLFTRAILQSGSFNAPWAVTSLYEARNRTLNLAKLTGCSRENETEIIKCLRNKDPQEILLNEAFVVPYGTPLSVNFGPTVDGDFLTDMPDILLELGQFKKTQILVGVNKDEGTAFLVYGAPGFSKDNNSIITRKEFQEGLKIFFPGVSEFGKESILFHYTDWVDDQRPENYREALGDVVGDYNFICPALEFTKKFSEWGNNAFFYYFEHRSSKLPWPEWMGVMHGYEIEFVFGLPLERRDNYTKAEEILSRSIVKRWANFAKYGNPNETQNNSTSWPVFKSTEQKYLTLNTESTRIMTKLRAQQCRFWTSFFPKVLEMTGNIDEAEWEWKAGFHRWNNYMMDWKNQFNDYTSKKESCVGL

The term IC50 denotes the concentration needed to halve the response being measured. As to `O=C(Nc1cc(-c2cn(CCNc3c4c(nc5ccccc35)CCCC4)nn2)ccn1)Nc1cccc2c1[C@@H]1CCCCN1C2=O`, the half-maximal inhibitory concentration (IC50) in the data set with NCI-H727 was 7 µM; in the data set on Caco-2 it was 10 µM; on Cholinesterase it was 254 nM; in the data set with MDA-MB-231 it was 4 µM; in data set [1], 19 nM; at Acetylcholinesterase it was 13.7 nM. The half-maximal inhibitory concentration (IC50) in the data set with PC-3 came to 6 µM; with HCT-116, 2700 nM; in data set [2] it was 1100 nM; in the data set with Huh-7, 2.6 µM.
Regarding `O=C(Nc1cc(-c2cn(CCNc3c4c(nc5ccccc35)CCCC4)nn2)ccn1)Nc1cccc2c1[C@H]1CCCCN1C2=O`, the IC50 with NCI-H727 amounted to 5 µM; in the data set on Caco-2, 8 µM; against Cholinesterase, 395 nM; with MDA-MB-231, 2 µM; in data set [1] it was 7 nM; at Acetylcholinesterase, 9.5 nM. For the same compound, the IC50 is 3 µM with PC-3, 2200 nM with HCT-116, 500 nM in [2] and 3.5 µM in the data set on Huh-7.
With `C#Cc1ccnc(NC(=O)Nc2cccc3c2[C@H]2CCCCN2C3=O)c1`, the IC50 came to 33 nM in [1] and 18 nM in data set [2].
As for `C#Cc1ccnc(NC(=O)Nc2cccc3c2[C@@H]2CCCCN2C3=O)c1`, the IC50 is 90 nM in data set [1] and 50 nM in data set [2].
Consider `c1ccc2c(NCCn3ccnn3)c3c(nc2c1)CCCC3`, for which the concentration for half-maximal inhibition (IC50) in [1] and in [2] was more than 10000 nM in each case.
In the case of `C#CCOCc1ccnc(NC(=O)Nc2cccc3c2C2CCCCN2C3=O)c1` (racemic), the half-inhibitory concentration (IC50) was 60 nM in data set [1] and 150 nM in [2].
For `C#CCN(C)Cc1ccnc(NC(=O)Nc2cccc3c2C2CCCCN2C3=O)c1` (racemic), in that order: 11 nM and 90 nM.
For `C#Cc1ccc(NC(=O)Nc2cccc3c2C2CCCCN2C3=O)nc1` (racemic), in that order: more than 10000 nM and more than 10000 nM.
Broadly, the Papp A→B is how fast a substance crosses the layer from the apical side. A low value points to slow passage. Usually Papp B→A stands for how fast a substance crosses the layer from the basolateral side. In general, efflux ratio refers to a quotient of directional permeabilities that is used to spot active efflux. The compound `CN(Cc1ccnc(NC(=O)Nc2cccc3c2C2CCCCN2C3=O)c1)Cc1cn(CCNc2c3c(nc4ccccc24)CCCC3)nn1` (racemic) yielded a Papp A→B with MDR1 [3] of 10.1 ×10⁻⁶ cm/s. In addition, the IC50 with NCI-H727 was determined as 4 µM; with HaCaT, 2000 nM; with SH-SY5Y, 25 µM; in the data set with Caco-2 it was 9 µM; at Cholinesterase it was 206 nM; with MDA-MB-231, 2 µM. The IC50 in [1] turned out to be 10 nM; at Acetylcholinesterase it was 58.6 nM; in the data set on PC-3, 3 µM; in the data set on HCT-116, 2000 nM; in data set [2] it was 310 nM; with Huh-7, 2 µM. This compound also returned a basolateral-to-apical permeability (Papp B→A) with MDR1 [4] of 8.4 ×10⁻⁶ cm/s. Also, the Activity entry in the data set on MDCK-MDR1 is “Non-Toxic”. Besides, in the data set on MDR1 [5], the efflux ratio was 0.83. Moreover, the cytotoxicity at 24 h, 100 µM in data set [6] was 50%.
Turning to `O=C(Nc1cc(COCc2cn(CCNc3ccncc3)nn2)ccn1)Nc1cccc2c1C1CCCCN1C2=O` (racemic), the 50% inhibitory concentration (IC50) was determined as 30 nM in data set [1] and 200 nM in data set [2].
For `C#Cc1cccc(NC(=O)Nc2cccc3c2C2CCCCN2C3=O)n1` (racemic), the figures for the IC50 in [1] and in [2] were 300 nM and 80 nM, respectively.
As for `C#CCCc1ccnc(NC(=O)Nc2cccc3c2C2CCCCN2C3=O)c1` (racemic), the IC50 stood at 15 nM in data set [1] and 70 nM in data set [2].
Take `O=C(Nc1cc(COCc2cn(CCNc3c4c(nc5ccccc35)CCCC4)nn2)ccn1)Nc1cccc2c1C1CCCCN1C2=O` (racemic): the apparent permeability from apical to basolateral (Papp A→B) with MDR1 [3] was determined as 13.5 ×10⁻⁶ cm/s. The IC50 in the data set on NCI-H727 worked out at 9 µM; in the data set on HaCaT, 4000 nM; with SH-SY5Y, 22 µM; in the data set on Caco-2 it was 20 µM; against Cholinesterase, 169 nM; with MDA-MB-231, 4 µM. Besides, the concentration for half-maximal inhibition (IC50) in [1] was determined as 10 nM; on Acetylcholinesterase it was 20.8 nM; with PC-3, 7 µM; with HCT-116 it was 4000 nM; in data set [2], 300 nM; in the data set on Huh-7 it was 4 µM. Moreover, the Papp B→A in the data set on MDR1 [4] was 20.8 ×10⁻⁶ cm/s. For the same compound, the Activity result with MDCK-MDR1 is listed as “Non-Toxic”. The efflux ratio with MDR1 [5] came to 1.54. For the same compound, in data set [6], the cytotoxicity at 24 h, 100 µM turned out to be 50%.
`O=C(Nc1cc(COCc2cn(CCCc3ccccc3)nn2)ccn1)Nc1cccc2c1C1CCCCN1C2=O` (racemic): the IC50 in [1] was determined as 8 nM; in data set [2], 260 nM.
Take `O=C(Nc1cccc(-c2cn(CCNc3c4c(nc5ccccc35)CCCC4)nn2)n1)Nc1cccc2c1C1CCCCN1C2=O` (racemic): the IC50 in the data set with NCI-H727 was more than 25 µM; in the data set with Caco-2, 24 µM; against Cholinesterase it was 21.1 nM; in the data set on MDA-MB-231, 17 µM; in data set [1], 4200 nM; on Acetylcholinesterase, 133 nM. Moreover, the IC50 in the data set with PC-3 was 27 µM; in the data set on HCT-116 it was 17000 nM; in data set [2], 3100 nM; in the data set with Huh-7, 18 µM.
As to `Cn1cc(COCc2ccnc(NC(=O)Nc3cccc4c3C3CCCCN3C4=O)c2)nn1` (racemic), the IC50 in data set [1] worked out at 25 nM; in data set [2], 250 nM.
In the case of `C#Cc1ccnc(NC(=O)Nc2cccc3c2C2CCCCN2C3=O)c1` (racemic), the results for the IC50 in [1] and in data set [2] were 41 nM and 68 nM, respectively.
`O=C(Nc1cc(COCc2cn(CCNc3ccnc4ccccc34)nn2)ccn1)Nc1cccc2c1C1CCCCN1C2=O` (racemic): the 50% inhibitory concentration (IC50) was more than 10000 nM in [1] and 240 nM in [2].
In the case of `O=C(Nc1ccc(-c2cn(CCNc3c4c(nc5ccccc35)CCCC4)nn2)cn1)Nc1cccc2c1C1CCCCN1C2=O` (racemic), the IC50 in the data set with NCI-H727 is more than 25 µM; with Caco-2, more than 25 µM; on Cholinesterase, 185 nM; in the data set with MDA-MB-231, more than 25 µM; in data set [1], more than 10000 nM; at Acetylcholinesterase, 0.8 nM. In addition, the concentration for half-maximal inhibition (IC50) in the data set on PC-3 is more than 25 µM; in the data set on HCT-116 it was more than 25000 nM; in [2], more than 10000 nM; in the data set on Huh-7, more than 25 µM.
As to `O=C(Nc1cc(CCc2cn(CCNc3c4c(nc5ccccc35)CCCC4)nn2)ccn1)Nc1cccc2c1C1CCCCN1C2=O` (racemic), the IC50 with NCI-H727 turned out to be 6.3 µM; with HaCaT, 1900 nM; in the data set on Caco-2, 4.8 µM; against Cholinesterase it was 65.7 nM; with MDA-MB-231, 2 µM; in [1] it was 21 nM. Moreover, the IC50 on Acetylcholinesterase was 23.6 nM; in the data set on PC-3, 1.6 µM; with HCT-116, 1100 nM; in data set [2] it was 800 nM; in the data set on Huh-7, 2.9 µM.
